Results published in patent publication US20010051602A1, “Methods for increasing ApoE levels for the treatment of neurodegenerative disease” (priority 1997, published 2001).
Several values for one entry are separate records, joined by “and”; a condition that tells them apart may be missing. Equal entries are not always repeated.

How the values were obtained:
ApoE [1] = experiment: in vivo effect of probucol on ApoE levels in murine tissues, immunoblot densitometry; conditions: mice; for ApoE G/Dens (% Peak) / ApoE G/Dens-DD / ApoE G/DxA (% Total): pooled
Experimental: To extend the foregoing in vitro studies, the following animal study was conducted. […] At the end of ten days, the animals were sacrificed and the brain tissue collected, rapidly dissected, and the hippocampi were isolated. The livers, tissue, and blood were also collected. Tissue homogenates from all ten animals were pooled and the ApoE levels in the different tissues were determined by immunoblot.

ApoE [2] = experiment: clinical trial: ApoE levels in CSF of AD patients treated with probucol, immunoblot; format: in vivo, human; conditions: probucol 1000 mg/day; for Average Change in ApoE (% baseline): one month of treatment, 8 patients
Experimental: Biological Marker: A lumbar puncture was performed at baseline and one month after treatment. The relative concentrations of ApoE levels in the CSF were determined by immunoblot as described by Poirer, J. et al., Neuroscience 55:81-90 (1993).
The cerebral spinal fluid (CSF) of the above subjects was analyzed for the concentration of ApoE protein by immunoblot using an internal standard. The samples for the first six patients were analyzed independently of the last two patients, thus the scales for patients 1-6 are different from the scales for patients 8 and 9.

Alzheimer's disease [3] = experiment: clinical trial: ADAS-Cog (extended 117 point scale); format: in vivo, human
Experimental: Neuropsychological Assessment: The Alzheimer's Disease Assessment Scale, Cognitive Part (ADAS-Cog) (see Rosen et al., Am. J. Psychiatr., 141:1356-1364 (1984)) was used as an objective neuropsychological measure. It consists of a battery of neuropsychological tests for different cognitive functions. The battery comes to a single score with a maximum of 70 points and is administered in about 45 minutes to patients. A 117 point extended scale version of this test was also used (see Table 5). The extended 117 pt. […] The scoring method for this modified ADAS-Cog test ranges from 0 […].

Alzheimer's disease [4] = experiment: clinical trial: Clinical Impression of Change (CIBIC-Plus); format: in vivo, human; design: key to CIBIC Scores, 3 months, Average / CIBIC Scores, 6 months, Average: 7-point scale: 1 = very much improved, 4 = no change, 7 = very much worse
Experimental: Neuropsychological Assessment: The Clinical Impression of Change (CIBIC-Plus) and the Global Deterioration Scale (GDS) were recorded at 3 and 6 months. The Clinical Impression of Change (CIBIC-Plus) consists of the holistic impression by the clinician of whether the patient has shown any change since baseline as rated on a seven point sale (marked, moderate, mild improvement, no change, or marked, moderate, mild decline). The Global Deterioration Scale rates clinically identifiable stages of dementia. […] This test provides a holistic impression by the clinician of whether the patient has shown any change since baseline. The CIBIC is scored as a seven point scale, with a range from 1=“very much improved” to 4=“no change” to 7=“very much worse.” Changes in the CIBIC score have shown only weak correlation with changes in the ADAS-Cog and have been reported to be less sensitive to change than other measures. The FDA guidelines are widely interpreted as mandating the use of the CIBIC and this scale serves to measure the impact of treatment protocols on the quality of life for the patient.

β-amyloid protein (1-42) = experiment: clinical trial: CSF β-amyloid (1-42); format: in vivo, human; conditions: individual AD patient
Source text: Biological Markers: Additional biochemical markers included phenotyping of the patients ApoE and determining relative concentrations of tau protein, P-amyloid protein (1-42 and 1-40); and relative extent of lipid peroxidation.
Tables 11 and 12 summarize the changes in total β-amyloid protein (1-40 and 1-42) at one month, as a percentage of the baseline values.

lipid peroxidation = experiment: clinical trial: lipid peroxidation in the CSF (TBARS); format: in vivo, human
Experimental: In order to assess the antioxidant properties of probucol we analyzed lipid peroxidation levels in the CSF of patients before and after one month of treatment with probucol (one month). In vitro lipid peroxidation was measured according to the method of Ohkawa et al. (Anal. Biochem., 95:351-358 (1979)) with some modifications. Briefly, cerebrospinal fluid samples from Alzheimer's disease patients were prepared in 20 volumes of phosphate buffer (pH=7) (95% N2, 5% CO2) with a Teflon homogenizer. After centrifugation (1000 g, 10 min., 2° C.), the supernatant was precipitated with trichloroacetic acid (72%) according to Brown et al. (Anal. Biochem., 189:136-139 (1989)). This procedure removed material such as non-lipid-derived malondialdehyde (MDA) that could interfere with lipid peroxidation measurement. After precipitation with trichloracetic acid and centrifugation (10000 g, 15 min., 2° C.), 100 μl of the supernatant containing human brain homogenates was used to measure MDA levels. These supernatants were incubated with 20 μl of SDS 10%, 150 μl of acetic acid 20% (pH 3.5), and 150 μl of thiobarbituric acid (TBA) (0.6% in 0.05 N NaOH) and heated at 100° C. for 60 min. This step was performed under a controlled atmosphere (95% N^2, 5% CO^2) in sealed vials to avoid formation of MDA during heating. At the end of the incubation, the reaction was stopped at 4° C. The MDA-TBA complex of TBARS (thiobarbituric acid reactive substances) was then extracted with 300 μl of butanol/pyridine (15:1) by strong shaking (for 30 sec.) followed by centrifugation (1000 g, 10 min., 4° C.).

[5] = Blood, 0.1 mg i.p. daily for ten days
[6] = Blood, 0.5 mg i.p. daily for ten days
[7] = Blood, 5.0 mg i.p. daily for ten days
[8] = Hippocampus, 0.1 mg i.p. daily for ten days
[9] = Hippocampus, 0.5 mg i.p. daily for ten days
[10] = Hippocampus, 5.0 mg i.p. daily for ten days
[11] = Liver, 0.1 mg i.p. daily for ten days
[12] = Liver, 0.5 mg i.p. daily for ten days
[13] = Liver, 5.0 mg i.p. daily for ten days
[14] = highest administered dose (5 mg), ten days
[15] = average of patients, baseline average 66.8
[16] = individual AD patient, 117 is the best possible score
[17] = individual AD patient, 1 very much improved, 4 no change, 7 very much worse

Compound: CC(C)(Sc1cc(C(C)(C)C)c(O)c(C(C)(C)C)c1)Sc1cc(C(C)(C)C)c(O)c(C(C)(C)C)c1 [probucol]
- ApoE G/Dens (% Peak) (ApoE [1]; [5]): 70.886 % Peak
- ApoE G/Dens-DD (ApoE [1]; [5]): 0.2783
- ApoE G/DxA (% Total) (ApoE [1]; [5]): 19.187 % Total
- ApoE G/Dens (% Peak) (ApoE [1]; [6]): 57.610 % Peak
- ApoE G/Dens-DD (ApoE [1]; [6]): 0.2262
- ApoE G/DxA (% Total) (ApoE [1]; [6]): 14.885 % Total
- ApoE G/Dens (% Peak) (ApoE [1]; [7]): 45.847 % Peak
- ApoE G/Dens-DD (ApoE [1]; [7]): 0.1800
- ApoE G/DxA (% Total) (ApoE [1]; [7]): 11.846 % Total
- ApoE G/Dens (% Peak) (ApoE [1]; [8]): 18.571 % Peak
- ApoE G/Dens-DD (ApoE [1]; [8]): 0.0729
- ApoE G/DxA (% Total) (ApoE [1]; [8]): 4.570 % Total
- ApoE G/Dens (% Peak) (ApoE [1]; [9]): 14.958 % Peak
- ApoE G/Dens-DD (ApoE [1]; [9]): 0.0587
- ApoE G/DxA (% Total) (ApoE [1]; [9]): 3.497 % Total
- ApoE G/Dens (% Peak) (ApoE [1]; [10]): 25.469 % Peak
- ApoE G/Dens-DD (ApoE [1]; [10]): 0.1000
- ApoE G/DxA (% Total) (ApoE [1]; [10]): 5.954 % Total
- ApoE G/Dens (% Peak) (ApoE [1]; [11]): 21.386 % Peak
- ApoE G/Dens-DD (ApoE [1]; [11]): 0.0840
- ApoE G/DxA (% Total) (ApoE [1]; [11]): 5.263 % Total
- ApoE G/Dens (% Peak) (ApoE [1]; [12]): 11.315 % Peak
- ApoE G/Dens-DD (ApoE [1]; [12]): 0.0444
- ApoE G/DxA (% Total) (ApoE [1]; [12]): 2.506 % Total
- ApoE G/Dens (% Peak) (ApoE [1]; [13]): 8.268 % Peak
- ApoE G/Dens-DD (ApoE [1]; [13]): 0.0325
- ApoE G/DxA (% Total) (ApoE [1]; [13]): 1.933 % Total
- levels of ApoE in the blood, % of the control value (ApoE [1]; [14]): 60%
- levels of ApoE in the liver, % of the control value (ApoE [1]; [14]): 60%
- levels of ApoE in the brain, % of the control value (ApoE [1]; highest dose evaluated (5 mg), ten days): approximately 150%
- Change in ApoE (% baseline) (ApoE [2]; 1 month, individual AD patient): 118% baseline and 89% baseline and 87% baseline and 152% baseline and 105% baseline and 178% baseline and 136% baseline and 133% baseline
- ApoE 1 month (ROD) (ApoE [2]; individual AD patient, scales of patients 1-6 differ from patients 8 and 9): 2.59 ROD and 7.14 ROD and 9.17 ROD and 0.1086 ROD and 0.0861 ROD and 8.03 ROD and 14.81 ROD and 10.27 ROD
- Average Change in ApoE (% baseline) (ApoE [2]): 125%
- Average Change in ApoE (% baseline) (ApoE [2]; listed as Probucol): 125%
- ADAS-Cog (117 point scale) score, 3 months, Average (Alzheimer's disease [3]; [15]): 65.6
- ADAS-Cog (117 point scale) score, 6 months, Average (Alzheimer's disease [3]; [15]): 68.1
- ADAS-Cog (117 point scale) score, 3 months (Alzheimer's disease [3]; [16]): 73 (2×) and 51 and 63 (3×) and 83 and 56
- ADAS-Cog (117 point scale) score, 6 months (Alzheimer's disease [3]; [16]): 74 and 49 and 82 (2×) and 63 and 58 and 72 and 65
- number of patients that appeared to stabilize or improve, ADAS-Cog (117 point scale) (Alzheimer's disease [3]; six month treatment, eight patients): five
- CIBIC-Plus evaluation for the group as a whole (Alzheimer's disease [4]; 6 month course of treatment): slight deterioration
- CIBIC Scores, 3 months, Average (Alzheimer's disease [4]; average of patients): 3.9
- CIBIC Scores, 6 months, Average (Alzheimer's disease [4]; average of patients): 5.3
- CIBIC Scores, 3 months (Alzheimer's disease [4]; [17]): 3 (3×) and 5 (2×) and 4 (4×)
- CIBIC Scores, 6 months (Alzheimer's disease [4]; [17]): 5 (4×) and 6 (3×) and 4
- [β amyloid 1-42] in the CSF, % change (β-amyloid protein (1-42); 1 month as a percentage of the baseline value): 242% and 142% (2×) and 56% and 195% and 624% and 2144%
- [β amyloid 1-42] in the CSF, 1 month (β-amyloid protein (1-42); average of triplicate assays): 2.48 and 3.92 and 0.76 and 1.78 and 2.15 and 0.31 and 1.06 and 1.29
- Lipid Peroxidation, Change (% Baseline), average (lipid peroxidation; 1 month, average for eight patients): 100.9 % Baseline
- Lipid Peroxidation, Change (% baseline) (lipid peroxidation; 1 month, individual AD patient): 100.3 % baseline and 97.4 % baseline and 94.8 % baseline and 97.5 % baseline and 104.2 % baseline and 92.8 % baseline and 103.8 % baseline and 116.1 % baseline
- Lipid Peroxidation, 1 month (lipid peroxidation; individual AD patient, average of 4-6 determinations): 0.705 Fluorescence Units and 0.686 Fluorescence Units and 0.687 Fluorescence Units and 0.692 Fluorescence Units and 0.744 Fluorescence Units and 0.691 Fluorescence Units and 0.731 Fluorescence Units and 0.824 Fluorescence Units
